Laboratory results reported in patent US20240382499A1, “INDUCERS OF SENESCENCE, IN COMBINATION WITH A SELECTIVE DEATH RECEPTOR 5 (DR5) AGONIST, FOR USE IN A METHOD OF TREATING CANCER” (Stichting Het Nederlands Kanker Instituut-Antoni van …, priority 2021, published 2024).
Residues, ends and D or L forms follow the SMILES beside them. *: point of attachment. Cbz = O=C(OCc1ccccc1)*; CH2F = FC*

Key:
[1] = system: proliferating and senescent A549 cells; test: Colony formation with low dose IgA-cona-dim, NEO2734 and Z-VAD-FMK; type: cell-based; conditions: 10 μM Z-VAD-FMK; alisertib-induced senescent A549
Description: (§1) FIG. 10: Colony formation in proliferating and alisertib-induced senescent A549 (A), Hep1 (B) and MM231 (C) cells with IgG1-cona or IgA-cona-dim DR5 agonist antibodies. Colony formation in proliferating and alisertib-induced senescent A549 cells treated with the low dose of 0.125 μg/ml IgA-cona-dim, 0.25 μM NEO2734 and 10 μM Z-VAD-FMK (D). Colony formation using low dose 0.25 μM of NEO2734 and 0.125 μg/ml IgA-cona-dim A549 cells made senescent by one-week treatment with 1 μM barasertib, 0.5 μM PF-06873600, 100 nM doxorubicin, 50 nM CFI-400945, 2 μM Etoposide or 1 μM TAS-119 (E).

[2] = system: alisertib-induced senescent A549, Hep1 and MM231 cells; test: Colony formation with IgG1-cona or IgA-cona-dim DR5 agonist antibodies; type: cell-based; conditions: side-by-side IgG1 and IgA-cona-dim forms of conatumumab
Description: as §1
Antibodies were generated by expression of SEQ 1 and SEQ 3 (IgG1-cona), SEQ 2 and SEQ 3 (IgA-cona), or SEQ 2, SEQ 3 and SEQ 4 (IgA-cona-dim) as described (Beyer et al., 2009. J Immunol Methods 346: 26-37), by employing the nucleotide sequences SEQ 5 and SEQ 6 (IgG1-cona), SEQ 6 and SEQ 7 (IgA-cona), or SEQ 6, SEQ 7 and SEQ 8 (IgA-cona-dim). SEQ 4 depicts a sequence of an immunoglobulin J chain, which links two or more IgA monomer units.

Compound	rescue from IgA-cona-dim plus NEO2734 mediated senolysis [1]	senolytic potency compared with IgG form [2]
COC(=O)C[C@H](NC(=O)[C@H](C)NC(=O)[C@@H](NC(=O)OCc1ccccc1)C(C)C)C(=O)CF [Z-VAD-FMK] (Cbz-Val-Ala-Asp(OMe)-CH2F)	fully rescue the cells from senolysis	
IgA-cona-dim: dimeric form of IgA-conatumumab, SEQ 2, SEQ 3 and SEQ 4 (J chain)		most potent DR5 agonist to eliminate senescent cells
